# Results taken from patent US11135214B2, “Methods for enhancing the bio availability and exposure of a voltage-gated potassium channel opener” (priority 2018, dated 2021).
# Several values for one entry are separate records, joined by “and”; a condition that tells them apart may be missing. Identical values can stand only once. Like-named read-outs stand apart in the source and are kept apart here.
# Legend:
# [1] = First-in-human SAD and MAD study, pharmacokinetics; assay type: in vivo
# Procedure: A first-in-human study was conducted to evaluate the safety, tolerability and pharmacokinetics (PK) of single and multiple ascending doses (SAD and MAD) of oral Compound A.
# In the SAD Phase, 32 healthy volunteers were randomized (3:1) to Compound A (5, 15, 20, 25 or 30 mg) or placebo. The study featured an adaptive design. A crossover food effect cohort (N=10) was also completed with single doses of 20 mg. A sub-set of 8 male subjects were also assessed with Transcranial Magnetic Stimulation (TMS) for effects on cortical excitability (see Examples 4 and 5).
# Repeat doses of Compound A (15 mg QD) were evaluated in a fasted and fed state over 7 and 10 days, respectively. Repeat doses of Compound A (25 mg QD) were also evaluated in a fed state over 10 days.
# Compound A was formulated as an immediate release capsule. Serial plasma PK samples were collected for all cohorts. Safety evaluations throughout the study included adverse event (AE) monitoring, clinical laboratory tests, vital signs, ECGs, physical examinations and Columbia-Suicide Severity Rating Scale.
# [2] = system: corticospinal excitability; test: TMS crossover study, TMS-EMG resting motor threshold (RMT); assay type: in vivo, human; conditions: for Resting Motor Threshold, post-dose change from baseline: individual subjects; for Resting Motor Threshold, post-dose change from baseline (Mean): mean of subjects
# Procedure: PD assessments included resting state electroencephalogram (RS-EEG); TMS-EMG measurements including resting motor threshold (RMT), active motor threshold (AMT), and short-interval intracortical inhibition (SICI); and TMS-EEG measurements. All 20 subjects underwent TMS-EMG and TMS-EEG sessions prior to dosing on Days 1 and 7 and at 2 and 4 h after dosing. […] For the 6 h timepoint, RMT was performed for 16 subjects, and AMT, EEG resting state, and TMS-EEG was performed for 8 subjects. RMT and AMT values are reported as percentages of maximum stimulator output (% MSO). Drug-induced modulation of TMS-EMG parameters were evaluated over the 3 timepoints (2, 4, and 6 h) and for the timepoint with the highest drug exposure. Individual and averaged RMT values at baseline and change each timepoint for Compound A and placebo for all 20 subjects are presented in Table 18. […] In addition, RMT could not be registered for Subject 912 at 2 hours after Compound A intake.
# [3] = human, plasma, oral, 15 mg, SAD, 15 mg fasted, N=3, Mean ± SD
# [4] = human, plasma, oral, 20 mg, SAD, 20 mg fasted, N=6, Mean ± SD
# [5] = human, plasma, oral, 25 mg, MAD, 25 mg QD Fed, Day 1, N=6, mean
# [6] = human, plasma, oral, 25 mg, MAD, 25 mg QD Fed, Day 10, N=6, mean
# [7] = human, plasma, oral, 25 mg, SAD, 25 mg fed standard breakfast, N=6, Mean ± SD
# [8] = human, plasma, oral, 30 mg, SAD, 30 mg fasted, N=6, Mean ± SD
# [9] = single 20 mg dose, 2 h post-dose
# [10] = single 20 mg dose, 4 h post-dose
# [11] = single 20 mg dose, 6 h post-dose
compound,measurement,setting,value
"Cc1cc(N2CCc3cc(F)ccc3C2)cc(C)c1NC(=O)CC(C)(C)C [Compound A, N-[4-(6-fluoro-3,4-dihydro-1H-isoquinolin-2-yl)-2,6-dimethylphenyl]-3,3-dimethylbutanamide]",Cmax,[1]; [3],27.3 ± 11.1 ng/mL
same,Tmax,[1]; [3],4.5 ± 2.6 h
same,AUC(0-t),"[1]; human, plasma, oral, 15 mg, SAD, 15 mg fasted, N=3, Mean ± SD, read-out: AUC0-24",328 ± 141 ng·h/mL
same,AUC(0-t),"[1]; human, plasma, oral, 15 mg, SAD, 15 mg fasted, N=3, tLast 32 h, Mean ± SD, read-out: AUC0-t",397 ± 166 ng·h/mL
same,Cmax,[1]; [4],31.5 ± 21.1 ng/mL
same,Tmax,[1]; [4],3.69 ± 2.05 h
same,AUC(0-t),"[1]; human, plasma, oral, 20 mg, SAD, 20 mg fasted, N=6, Mean ± SD, read-out: AUC0-24",376 ± 220 ng·h/mL
same,AUC(0-t),"[1]; human, plasma, oral, 20 mg, SAD, 20 mg fasted, N=6, tLast 72 h, Mean ± SD, read-out: AUC0-t",709 ± 337 ng·h/mL
same,Cmax,[1]; [5],49.6 ng/mL
same,Tmax,[1]; [5],4.38 h
same,AUC(0-t),"[1]; human, plasma, oral, 25 mg, MAD, 25 mg QD Fed, Day 1, N=6, mean, read-out: AUC0-24",592 ng·h/mL
same,Cmax,[1]; [6],96.7 ng/mL
same,Tmax,[1]; [6],4.99 h
same,AUC(0-t),"[1]; human, plasma, oral, 25 mg, MAD, 25 mg QD Fed, Day 10, N=6, mean, read-out: AUC0-24",1720 ng·h/mL
same,AUC(0-t),"[1]; human, plasma, oral, 25 mg, MAD, 25 mg QD Fed, Day 10, N=6, mean, read-out: AUC0-t",8010 ng·h/mL
same,Cmax,[1]; [7],45.8 ± 14.3 ng/mL
same,Tmax,[1]; [7],4.51 ± 1.22 h
same,AUC(0-t),"[1]; human, plasma, oral, 25 mg, SAD, 25 mg fed standard breakfast, N=6, Mean ± SD, read-out: AUC0-24",482 ± 130 ng·h/mL
same,AUC(0-t),"[1]; human, plasma, oral, 25 mg, SAD, 25 mg fed, N=6, tLast 146 h, Mean ± SD, read-out: AUC0-t",1470 ± 270 ng·h/mL
same,Cmax,[1]; [8],35.5 ± 33.5 ng/mL
same,Tmax,[1]; [8],3.17 ± 1.48 h
same,AUC(0-t),"[1]; human, plasma, oral, 30 mg, SAD, 30 mg fasted, N=6, Mean ± SD, read-out: AUC0-24",369 ± 219 ng·h/mL
same,AUC(0-t),"[1]; human, plasma, oral, 30 mg, SAD, 30 mg fasted, N=6, tLast 72 h, Mean ± SD, read-out: AUC0-t",837 ± 280 ng·h/mL
same,half-life at 10 days,"[1]; human, plasma, oral, MAD, 15 mg Fed, Day 10, N=6, mean",239 h
same,half-life at 7 days,"[1]; human, plasma, oral, MAD, 15 mg QD Fasted, Day 7, N=6, mean",167 h
same,half-life at 10 days,"[1]; human, plasma, oral, MAD, 25 mg QD Fed, Day 10, N=6, mean",218 h
same,half-life,"[1]; human, plasma, oral, SAD, 5 mg fasted, N=3, Mean ± SD, read-out: T1/2 (converted)",49.2 ± 31.1 h
same,half-life,"[1]; human, plasma, oral, SAD, 15 mg fasted, N=3, Mean ± SD, read-out: T1/2 (converted)",41.9 ± 31.1 h
same,half-life,"[1]; human, plasma, oral, SAD, 20 mg fasted, N=6, Mean ± SD, read-out: T1/2 (converted)",48.9 ± 14.7 h
same,half-life,"[1]; human, plasma, oral, SAD, 25 mg fed standard breakfast, N=6, Mean ± SD, read-out: T1/2 (converted)",97.2 ± 18 h
same,half-life,"[1]; human, plasma, oral, SAD, 30 mg fasted, N=6, Mean ± SD, read-out: T1/2 (converted)",63.4 ± 28.2 h
same,half-life,"[1]; human, plasma, oral, immediate release formulation, read-out: effective half-life",> 24 h
same,dose proportionality of exposure,"[1]; multiple doses, fed state",exposure increased in proportion to dose
same,apparent steady state achieved,"[1]; multiple doses, 90% CI of successive day's exposure ratio within 0.8-1.25",6 to 9 days
same,peak to trough ratio,[1]; once a day dosing,low
same,attainment of steady state,"[1]; once per day dosing, without titration",1 week
same,RMT,[2]; 20 mg single dose,significant increase in RMT
same,"RMT increase, mean±SEM","[2]; 20 mg, 6 h",4.9±0.7%
same,effect on RMT,"[2]; 20 mg, 6 h post-dose",> 4%
same,"Resting Motor Threshold, post-dose change from baseline",[2]; [9],3 % MSO (4×) and 1 % MSO (4×) and 0 % MSO (7×) and 2 % MSO (3×) and 6 % MSO
same,"Resting Motor Threshold, post-dose change from baseline",[2]; [10],7 % MSO (2×) and 1 % MSO (4×) and 0 % MSO (4×) and 6 % MSO (2×) and 3 % MSO (3×) and 5 % MSO and 10 % MSO and 2 % MSO (2×) and 4 % MSO
same,"Resting Motor Threshold, post-dose change from baseline",[2]; [11],8 % MSO (2×) and 4 % MSO (3×) and 6 % MSO (2×) and 10 % MSO and 1 % MSO (2×) and 0 % MSO and 7 % MSO (3×) and 3 % MSO (2×)
same,"Resting Motor Threshold, post-dose change from baseline (Mean)",[2]; [9],1.5 % MSO
same,"Resting Motor Threshold, post-dose change from baseline (Mean)",[2]; [10],3.1 % MSO
same,"Resting Motor Threshold, post-dose change from baseline (Mean)",[2]; [11],4.9 % MSO
same,RMT compared to time matched placebo,"[2]; single 20 mg dose, 2, 4, and 6 h post-dose",increased RMT from baseline
